Structures are written as SMILES. Read-outs that look alike come from different tables or passages of the source.

Data on six compounds can be found in paper PMC2865235 (Journal of pharmaceutical and biomedical analysis, 2010).

Data set [1] relates to ABCG2. The following applies: cited from earlier work.
Data set [2] has as its system ABCB1. The following applies: cited from earlier work.
The subject of data set [3] is cell cycle. The following applies: in vitro; ref [2]; cited from earlier work.
The test system of data set [4] is Topo I cleavage complexes. The following applies: drug 1 μM, compared with CPT or SN-38; ref [2]; cited from earlier work.
In data set [5] the test system is MCF-7 cells. The following applies: read-out: 72 h IC50, ref [2]; cited from earlier work.
Data set [6] concerns P388 cells. The following applies: read-out: 72 h IC50, ref [2]; cited from earlier work.
The conditions of data set [7]: human, 4 h.
Data set [8] concerns HCT-116 cells. The following applies: read-out: 72 h IC50, ref [2]; cited from earlier work.

For the compound `CC[C@@]1(O)C(=O)OCc2c1cc1n(c2=O)Cc2cc3ccccc3nc2-1` [Camptothecin, camptothecin], in data set [1] (ref [2]), the “Substrate for the efflux pump ABCG2” value is “good substrates”.
Regarding `COc1cc2c3c(n(CCCN4CCOCC4)c(=O)c2cc1OC)-c1cc2c(cc1C3=O)OCO2` [NSC 724998], the “Substrate for ABCB1” value in [2] was “not a substrate”. For the same compound, the “Substrate for the efflux pump ABCG2” value in data set [1] (not told) is recorded as “not a substrate”.
In the case of `COc1cc2c3c(n(CCCn4ccnc4)c(=O)c2cc1OC)-c1cc2c(cc1C3=O)OCO2` [NSC 725776], the “Protein binding in human plasma” value is more than 98%. Moreover, the “Substrate for ABCB1” value in [2] is given as “moderate substrate”. In addition, the Cell cycle arrest result in data set [3] was “cell cycle arrest in both S and G(2)-M”. In addition, the “Persistence of Topo I cleavage complexes after removal of drug” value in [4] is on record as “persisted longer”. Besides, in [5], the concentration for half-maximal inhibition (IC50) is 90 nM. For the same compound, the IC50 in [6] is less than 30 nM. In addition, the “Stability in plasma at room temperature” value in data set [7] was more than 94.3%. The “Substrate for the efflux pump ABCG2” value in [1] (not told) was “moderate substrate”. In addition, the IC50 in [8] is 130 nM.
In the case of `COc1cc2c3c(n(CCCN4CCOCC4)c(=O)c2cc1OC)-c1cc2c(cc1C3=O)OCO2.Cl` [NSC 743400], the “Protein binding in human plasma” value is reported as more than 98%. Moreover, the Cell cycle arrest result in [3] was “cell cycle arrest in both S and G(2)-M”. In addition, in data set [4], the “Persistence of Topo I cleavage complexes after removal of drug” value was “persisted longer”. Further, the IC50 in [5] was 560 nM. In addition, the concentration for half-maximal inhibition (IC50) in [6] is 300 nM. Moreover, the “Stability in plasma at room temperature” value in data set [7] is listed as more than 94.3%. In data set [8], the IC50 is 1200 nM.
Take `CCc1c2c(nc3ccc(O)cc13)-c1cc3c(c(=O)n1C2)COC(=O)[C@]3(O)CC` [SN-38]: the “Substrate for the efflux pump ABCG2” value in [1] (ref [2]) is recorded as “good substrates”.
As to `CC[C@@]1(O)C(=O)OCc2c1cc1n(c2=O)Cc2cc3c(CN(C)C)c(O)ccc3nc2-1` [topotecan], in [1] (ref [2]), the “Substrate for the efflux pump ABCG2” value is listed as “good substrates”.
